Where two headings read alike, the source gives them in different places.

This is an account of results in US7666646B2, “Crystal structure of human Pim-1 kinase protein complexes and binding pockets thereof, and uses thereof in drug design” (priority 2003, dated 2010).

For one assay, the target named is Pim-1 (Homo sapiens, UniProt P11309). Nature of the assay: Coupled-enzyme kinase assay with S6 peptide substrate (Pim-1 IC50 determination). The class given is biochemical. The protocol:
The assay was carried out in a total volume of 100 μl in 0.1 M HEPES buffer (pH 7.6) containing 10 mM MgCl2, 2.5 mM phosphoenolpyruvate, 0.2 mM NADH, 30 μg/ml pyruvate kinase, 10 μg/ml lactate dehydrogenase (Roche Diagnostics Corp., Indianapolis, Ind.) and 2 mM DTT in a 96-well plate, and read at 340 nm at 30° C. on a Spectramax spectrophotometer (Molecular Devices, Sunnyvale, Calif.). […] The reaction was started by addition of ATP after 10 minutes pre-incubation of the reaction mixture at 30° C. […] Kinetic analysis was performed by non-linear regression fitting using the program Prism (GraphPad software, San Diego, Calif., USA).

Another assay concerns the target PKA (Homo sapiens, UniProt P17612). Conditions: in the presence of 50 μM LY294002; cited from earlier work.
A further assay relates to PI3K. To be noted: cited from earlier work.
In a further assay the target is Casein kinase 2 (CK2) (Homo sapiens, UniProt P68400). Conditions: Davies et al., supra; read-out: IC50 / potency of Casein kinase 2 inhibition; cited from earlier work.
Casein kinase 2 (CK2), sequence (P68400 whole entry): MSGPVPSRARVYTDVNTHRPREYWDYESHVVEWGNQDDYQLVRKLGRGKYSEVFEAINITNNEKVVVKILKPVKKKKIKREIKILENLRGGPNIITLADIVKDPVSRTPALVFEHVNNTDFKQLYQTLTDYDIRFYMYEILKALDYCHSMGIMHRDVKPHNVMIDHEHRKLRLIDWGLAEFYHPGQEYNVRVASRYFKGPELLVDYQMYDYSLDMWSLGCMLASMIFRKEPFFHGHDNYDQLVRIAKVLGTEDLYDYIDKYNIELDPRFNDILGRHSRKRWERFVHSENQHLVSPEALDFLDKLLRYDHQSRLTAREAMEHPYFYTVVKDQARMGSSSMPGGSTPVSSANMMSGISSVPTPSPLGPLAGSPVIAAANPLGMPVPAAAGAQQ

Pim-1, sequence (P11309 whole entry): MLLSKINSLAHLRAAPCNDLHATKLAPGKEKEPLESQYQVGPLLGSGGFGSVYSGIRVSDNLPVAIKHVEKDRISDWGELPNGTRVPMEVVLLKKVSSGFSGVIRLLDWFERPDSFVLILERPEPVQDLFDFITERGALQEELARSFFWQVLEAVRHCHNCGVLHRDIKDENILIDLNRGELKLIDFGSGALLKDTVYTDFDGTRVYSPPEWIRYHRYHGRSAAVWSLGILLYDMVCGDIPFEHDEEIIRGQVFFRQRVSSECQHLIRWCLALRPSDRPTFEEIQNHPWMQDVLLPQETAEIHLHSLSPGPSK

`COC(=O)[C@]1(O)C[C@@H]2O[C@@]1(C)n1c3ccccc3c3c4c(c5c6ccccc6n2c5c31)C(=O)NC4` [K-252a]: the IC50 against Pim-1 is 0.15 µM. Further, the “potency of Pim-1 inhibition” value at Pim-1 (panel of kinase inhibitors, refers to Table 1) was “sub-micromolar”.

In the case of `O=c1cc(N2CCOCC2)oc2c(-c3ccccc3)cccc12` [LY294002, 2-(4-morpholinyl)-8-phenyl-4H-1-benzopyran-4-one], the “reduction of PKA activity” value on PKA is 9%. Also, the IC50 in the assay on PI3K (Davies et al., Biochem. J. 351: 95-105 (2000), read-out: potency of PI3K inhibition reported by Davies et al.) was […]; in the assay with PI3K (Mizuno et al., FEBS Lett. 330: 114-116 (1993) as cited, read-out: IC50 for PI3K, as originally described), […]; at Casein kinase 2 (CK2) it was 6.9 µM.
